US20210145768A1, “MODULATING IMMUNE RESPONSE VIA TARGETING OF OLFACTORY RECEPTOR ACTIVITY” (La Jolla Institute for Allergy and Immunology, priority 2018, published 2021)
“And” between values parts separate entries of the source, which are not always exact repeats. Equal entries are not always repeated.

How the values were obtained:
[1] = biological target: T1, Olfr2 (Mus musculus, UniProt Q9QWU6); experiment: En face atherosclerosis quantification in Apoe−/− mice fed western diet; type: in vivo; design: Olfr2 expression was confirmed at the protein level on F4/80^+ vascular macrophages; from tissue; host or cells: explanted whole aortas, digested aortic cell suspensions (F4/80+ vascular macrophages) and blood monocytes of Apoe-/- C57BL/6J mice; living Apoe-/- mice for the in vivo study; conditions: for atherosclerosis in mice: summary of in vivo injection experiments
T1 sequence (Q9QWU6 1-327): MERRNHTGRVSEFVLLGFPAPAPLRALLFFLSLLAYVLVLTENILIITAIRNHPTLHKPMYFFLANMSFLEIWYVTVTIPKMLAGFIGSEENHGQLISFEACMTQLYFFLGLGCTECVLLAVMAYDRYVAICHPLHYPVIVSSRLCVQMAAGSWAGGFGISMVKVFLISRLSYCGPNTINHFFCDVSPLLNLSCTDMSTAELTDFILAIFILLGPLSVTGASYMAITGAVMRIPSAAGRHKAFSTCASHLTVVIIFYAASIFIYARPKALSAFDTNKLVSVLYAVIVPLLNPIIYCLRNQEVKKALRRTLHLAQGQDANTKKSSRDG
Protocol: The effect of citral on atherosclerosis in Apoe−/− mice fed a high fat western diet, a widely used model of atherosclerosis, was investigated. Briefly, ApoE^−/− Mice (10 weeks old) were fed WD for 4 weeks before the inhibitor treatment, citral, was started. Citral at 10 mg/kg was diluted in 100 uL of PBS and injected I.P. every 3 days for 4 weeks for a total of 12 injections. During this time, mice continue to eat WD for a total of 8 weeks. […] Thus, blocking Olfr2 is anti-atherosclerotic, showing that Olfr2 contributes to atherosclerosis.
To test a possible impact of Olfr2 on atherosclerosis in vivo, male Apoe^−/− mice were fed WD for 8 weeks and injected octanal (10 μg/g) intraperitoneally for the last 4 weeks every three days for a total of 12 injections. […] Octanal had no effect on total cholesterol, LDL cholesterol, HDL cholesterol or triglycerides (FIG. 11A). Similarly, in a loss-of-function experiment, male Apoe^−/− mice were treated with citral (10 μg/g, 12 injections over 4 weeks), which reduced the size of atherosclerotic lesions by ˜40% (FIGS. 10F and G). Citral treatment like octanal had no effect on other parameters (FIG. 11A).
(§1) Male Apoe^−/− mice (9 to 10 wks old) were fed WD for 4 weeks. Oct or Cit were diluted in sterile phosphate buffered saline (PBS) (Gibco) at a final concentration of 10 μg/g. 100 μl were injected intraperitoneally (i.p.) every 3 days for 4 weeks (12 injections total) while maintaining WD administration. PBS+0.1% DMSO (Sigma Aldrich) was injected as a vehicle control following the same protocol. Mice were sacrificed, perfused with PBS implemented with 2% heparin (Fresenius Kabi USA, LLC) and aortas removed for en face atherosclerotic lesion assessment. Mouse whole blood (heart puncture) was collected in EDTA tubes. Leukocyte blood counts were determined with HemaVet 950 (Drew Scientific). Plasma was collected from blood centrifuged at 3000 g for 15 min at 4° C. and stored at −80° C. until further analysis.
After explant, each aorta was pinned out after 4% paraformaldehyde incubation at room temperature for at least 2 hours Staining for atherosclerotic plaque was performed by incubating samples in Sudan IV. Microphotographs of the luminal (endothelial) aspect were of the aortic surface were analyzed using Photoshop CS (Adobe Systems). Atherosclerotic lesion size measurement was performed by blinded investigators using Image-Pro Premier software (Media Cybernetics).

[2] = biological target: T2, OR6A2 (Homo sapiens, UniProt O95222); experiment: IL-1β production in LPS-primed human MDMs; type: cell-based
T2 construct: OR6A2 protein surface expression in hMDMs was confirmed by flow cytometry; endogenous in cells; host or cells: human monocyte-derived macrophages from healthy donors (rhM-CSF, 7 d)
T2 sequence (O95222 1-327): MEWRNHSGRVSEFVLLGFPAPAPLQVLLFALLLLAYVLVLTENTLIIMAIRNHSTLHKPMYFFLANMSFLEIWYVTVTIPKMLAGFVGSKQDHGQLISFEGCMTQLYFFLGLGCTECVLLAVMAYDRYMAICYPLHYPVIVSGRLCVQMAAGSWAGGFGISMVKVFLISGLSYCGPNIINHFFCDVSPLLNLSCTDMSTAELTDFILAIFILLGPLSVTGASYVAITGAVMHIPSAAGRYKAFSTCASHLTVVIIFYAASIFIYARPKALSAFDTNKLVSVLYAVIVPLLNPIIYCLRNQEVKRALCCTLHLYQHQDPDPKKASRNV
Protocol: Mouse BMDMs and human MDMs were pretreated with LPS (50 ng/mL) or left untreated for 18 h at 37° C. and 5% CO2. After this period LPS pretreated and untreated cells were further incubated with Oct (10 μM) and Cit (100 μM) alone (LPS+Oct; LPS+Cit; Oct; Cit, respectively) or combined (LPS+Oct+Cit) for further 8 h. Supernatants were collected by centrifugation at 2000 g for 15 minutes at 4° C., collected and frozen at −80° C. until further IL-1β analysis by CBA (BD Biosciences).
Supernatants of stimulated cells and aortic tissue were analyzed by BD CBA Flex Sets (BD Biosciences) for mouse TNFα, CCL2, CCL4, IL-1β, or human TNF, IL6, and IL-1β according to the manufacturer's protocol. Samples were analyzed with LSR-II (BD Biosciences). Data was acquired with FACSDiva software (BD Biosciences) and analyzed with FCAP array software 3.0 (BD Biosciences).

[3] = Plasma lipids, body weight and hematological parameters in treated Apoe−/− mice; type: in vivo, mouse
Protocol: as §1, with “analysis. Lipid analysis of collected plasma was performed by IDEXX BioResearch.” for “analysis.”

SMILES	lesion size, en face staining of aortic arches ([1]; Apoe−/− mice on WD 8 weeks, octanal 10 μg/g i.p., 12 injections over last 4 weeks)	atherosclerosis in mice [1]	IL-1β in the supernatant, hMDMs ([2]; LPS 50 ng/mL 18 h, then octanal)	total cholesterol, LDL cholesterol, HDL cholesterol or triglycerides ([3]; octanal-treated Apoe−/− mice)	reduction of atherosclerotic lesion size ([1]; Apoe−/− mice on WD 8 weeks, citral 10 μg/g i.p. every 3 days, 12 injections over last 4 weeks)	atherosclerotic lesions, % of the aortic area ([1]; Apoe−/− mice on WD, citral 10 mg/kg i.p., 12 injections, untreated ~8%, P<0.02) [%]	octanal-induced IL-1β in the supernatant, hMDMs ([2]; LPS, octanal + citral)	other parameters (body weight, hematological, lipids) ([3]; citral-treated Apoe−/− mice)
CCCCCCCC=O [octanal]	more than doubled	exacerbated atherosclerosis	highly significant increase	no effect				
CC(C)=CCCC(C)=CC=O [citral]		protected mice from atherosclerosis			~50% and ~40%	~5	partially but significantly inhibited	no effect
